Target: T1, VDRtt (Rattus norvegicus, UniProt P13053)
T1 construct: from tissue; host or cells: rat heart ventricle, crude myocardial membranes (7,700-40,000 x g pellet)
T1 sequence (P13053 1-423): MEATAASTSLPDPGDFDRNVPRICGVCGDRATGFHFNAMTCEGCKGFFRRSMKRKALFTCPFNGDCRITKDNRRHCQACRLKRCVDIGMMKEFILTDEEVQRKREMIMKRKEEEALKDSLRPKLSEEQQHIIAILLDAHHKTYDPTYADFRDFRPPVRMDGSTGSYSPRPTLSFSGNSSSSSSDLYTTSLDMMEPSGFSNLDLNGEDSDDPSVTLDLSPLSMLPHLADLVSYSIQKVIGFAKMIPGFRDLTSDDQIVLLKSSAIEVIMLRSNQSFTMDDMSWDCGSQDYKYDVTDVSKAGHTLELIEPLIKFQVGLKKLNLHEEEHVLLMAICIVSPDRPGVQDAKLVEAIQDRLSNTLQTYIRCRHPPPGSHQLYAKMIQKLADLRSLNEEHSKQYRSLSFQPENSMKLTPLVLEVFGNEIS
Experiment: Competition with [3H] 1α,25(OH)2 vitamin D3 for binding to rat heart membrane preparations
Conditions: radioligand binding experiments, FIGS. 6 and 7
Procedure: Crude myocardial membranes were prepared as follows: whole hearts were removed from three month old female Sprague-Dawley rats and were cannulated and perfused two times with 10 mls ice-cold DPBS then once with 3 mls of ice-cold TKED lysis buffer (50 mM Tris-HCl, 150 mM KCl, 1.5 mM EDTA, 10 mM dithiothreitol, pH7.4 and a 1/100 dilution of Sigma Protease Inhibitor Cocktail [P8340]). Ventricles were cut away from atria and connective tissue and then minced, transferred to a 13 ml round-bottom Sarstedt tube and washed two times in 10 mls TKED lysis buffer by spinning briefly at full speed in a clinical centrifuge then aspirating. Tissue was kept ice-cold as much as possible. Washed minced ventricle tissue was then homogenized on ice with a Tekmar Tissuemizer in 5 volumes (˜5 mls) of TKED lysis buffer using 10 strokes at setting 30 followed by 5 strokes at setting 50. The resulting homogenate was transferred to a 15 ml Corex tube and centrifuged in a Beckman JA-20 rotor at 8,000 rpm (7,700 g) for 15 minutes at 4° C. The supernatant was transferred to a new 15 ml Corex tube and centrifuged in a Beckman JA-20 rotor at 18,200 rpm (40,000 g) for 25 minutes at 4° C. The resulting membrane pellet was washed once in a few mls TKED lysis buffer, resuspended in 0.5 mls TKED lysis buffer then homogenized with 3 strokes of a 2 ml Wheaton Potter-Elvejhem tissue grinder.
Ligand binding assays to determine the ability of competitors or test compounds to compete with [^3H] […] 1α,25(OH)2 vitamin D3 (specific activity 176 Ci/mmol) and various concentrations of competitor or test compound. Nonspecific binding is determined in the presence of cold 1α,25(OH)2 Vitamin D3 (2 μM) for vehicle and each competitor or test compound. Assays are performed at room temperature for 60 minutes. Reactants are then filtered over glass fiber filters (Whatman GF-C) and washed three times with 5 mls ice-cold TKEDN binding buffer. […] Tritiated [^3H] 1α,25(OH)2 vitamin D3 can be obtained from G.E. Healthcare and dried using a nitrogen evaporator and resuspended in ethanol. 1α,25(OH)2 Vitamin D3 and competitors or test compounds can be obtained from Sigma-Aldrich and diluted in ethanol. Vitamin D5 was obtained from the University of Illinois and was diluted in ethanol.

SMILES | binding of vitamin D analogs to VDRtt
C=C1CC[C@H](O)C/C1=C/C=C1\CCC[C@]2(C)[C@@H]([C@H](C)CCCC(C)(C)O)CC[C@@H]12 [25-hydroxyvitamin D3] | binds with various affinities
C=C1CC[C@H](O)C/C1=C/C=C1\CCC[C@]2(C)[C@@H]([C@H](C)CC[C@@H](CC)C(C)C)CC[C@@H]12 [Vitamin D5] | binds with various affinities
C=C1CCC(O)C/C1=C\C=C1\CCCC2(C)C1CCC2C(C)CCC(O)C(C)(C)O (stereo not shown) [24,25 dihydroxyvitamin D3] | binds with various affinities
C=C1/C(=C\C=C2/CCC[C@]3(C)[C@@H]([C@H](C)CCC(O)C(C)(C)O)CC[C@@H]23)C[C@@H](O)CC1O (stereo partly shown) [1,24,25 trihydroxyvitamin D3] | binds with various affinities

From patent publication US20100190187A1, “Screening Assays for Antagonists and Analyses of Cardiac Hypertrophy” (The Regents of the University of Michigan Office of …, priority 2006, published 2010)
